According to patent US9975888B2, “Aryl linked imidazole and triazole derivatives and methods of use thereof for improving the pharmacokinetics of a drug” (MERCK SHARP & DOHME CORP., priority 2013, dated 2018):

Experiments:
Format in all cases: biochemical
CYP1A2 = target: T1, CYP1A2 (Homo sapiens, UniProt P05177); assay: Cocktail assay for CYPs, phenacetin O-deethylation (CYP1A2), human liver microsomes; settings: 10 μM phenacetin, 0.1 mg/mL human liver microsomes, 10 min at 37° C.; read-out: CYP IC50 (nM) 1A2
T1 construct: 0.1 mg/mL protein human liver microsomes (BD Gentest); tissue BD Gentest; host or cells: human liver microsomes
T1 sequence (P05177 1-516): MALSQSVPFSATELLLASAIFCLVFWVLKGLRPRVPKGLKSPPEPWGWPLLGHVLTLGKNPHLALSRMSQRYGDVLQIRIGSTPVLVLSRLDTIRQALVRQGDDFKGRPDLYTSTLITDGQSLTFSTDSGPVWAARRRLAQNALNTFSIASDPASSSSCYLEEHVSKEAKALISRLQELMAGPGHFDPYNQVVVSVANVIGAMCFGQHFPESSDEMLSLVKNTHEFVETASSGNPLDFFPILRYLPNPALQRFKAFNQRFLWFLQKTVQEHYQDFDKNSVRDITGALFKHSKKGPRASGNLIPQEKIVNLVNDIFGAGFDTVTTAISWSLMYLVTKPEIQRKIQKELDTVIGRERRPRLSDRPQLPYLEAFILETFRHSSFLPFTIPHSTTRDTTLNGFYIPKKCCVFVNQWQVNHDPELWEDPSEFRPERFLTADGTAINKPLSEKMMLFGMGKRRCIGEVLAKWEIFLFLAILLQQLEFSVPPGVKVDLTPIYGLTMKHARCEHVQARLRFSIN
Summary of the method: (§1)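 Pooled human liver microsomes (0.1 mg/mL) with a probe cocktail of 10 μM phenacetin, 5 μM dextromethorphan and 2 μM midazolam plus NADPH, pH 7.4, 10 min at 37° C. Each metabolite was quantified by LC/MS/MS against a tolbutamide internal standard. IC50 came from % inhibition at 6 concentrations (e.g. 0.0032–10 μM) by non-linear regression.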

CYP2D6 = target: T2, CYP2D6 (Homo sapiens, UniProt P10635); assay: Cocktail assay for CYPs, dextromethorphan O-demethylation (CYP2D6), human liver microsomes; settings: 5 μM dextromethorphan, 0.1 mg/mL human liver microsomes, 10 min at 37° C.; read-out: CYP IC50 (nM) 2D6
T2 construct: 0.1 mg/mL protein human liver microsomes (BD Gentest); tissue BD Gentest; host or cells: human liver microsomes
Summary of the method: as §1

CYP2C9 = target: T3, CYP2C9 (Homo sapiens, UniProt P11712); assay: Cocktail assay for CYPs, diclofenac 4′-hydroxylation (CYP2C9), human liver microsomes; settings: 5 μM diclofenac, 0.1 mg/mL human liver microsomes, 10 min at 37° C.; read-out: CYP IC50 (nM) 2C9
T3 construct: 0.1 mg/mL protein human liver microsomes (BD Gentest); tissue BD Gentest; host or cells: human liver microsomes
Summary of the method: (§2)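 Pooled human liver microsomes (0.1 mg/mL) with probe cocktail incl. 5 μM diclofenac (CYP2C9) and 30 μM mephenytoin (CYP2C19), 1 mM NADPH, pH 7.4 phosphate buffer, 10 min at 37° C. Metabolites quantified by LC/MS/MS against internal standard; % inhibition versus no-inhibitor control, IC50 by non-linear regression.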

CYP3A4 [1] = target: T4, CYP3A4 (Homo sapiens, UniProt P08684); assay: IC50 vs CYP3A by inhibition of lopinavir metabolism in human liver microsomes; parameters: 0.01 mg/mL protein human liver microsomes (BD Gentest); tissue BD Gentest; host or cells: human liver microsomes; settings: 1.5 μM lopinavir, 0.01 mg/mL human liver microsomes, 8 min at 37° C.; read-out: CYP IC50 (nM) 3A4 (LPV)
Summary of the method: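 Human liver microsomes (0.01 mg/mL) with 1.5 μM lopinavir, 1 mM NADPH, 3.3 mM MgCl2 in 100 mM potassium phosphate pH 7.4, 8 min at 37 °C, six compound concentrations. Summed M2/M3/M4 hydroxy metabolites quantified by LC/MS/MS against tolbutamide; % inhibition normalised between no-inhibitor and 5 μM ketoconazole controls, IC50 by non-linear regression.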
Target sequence in this assay (P08684 2-503): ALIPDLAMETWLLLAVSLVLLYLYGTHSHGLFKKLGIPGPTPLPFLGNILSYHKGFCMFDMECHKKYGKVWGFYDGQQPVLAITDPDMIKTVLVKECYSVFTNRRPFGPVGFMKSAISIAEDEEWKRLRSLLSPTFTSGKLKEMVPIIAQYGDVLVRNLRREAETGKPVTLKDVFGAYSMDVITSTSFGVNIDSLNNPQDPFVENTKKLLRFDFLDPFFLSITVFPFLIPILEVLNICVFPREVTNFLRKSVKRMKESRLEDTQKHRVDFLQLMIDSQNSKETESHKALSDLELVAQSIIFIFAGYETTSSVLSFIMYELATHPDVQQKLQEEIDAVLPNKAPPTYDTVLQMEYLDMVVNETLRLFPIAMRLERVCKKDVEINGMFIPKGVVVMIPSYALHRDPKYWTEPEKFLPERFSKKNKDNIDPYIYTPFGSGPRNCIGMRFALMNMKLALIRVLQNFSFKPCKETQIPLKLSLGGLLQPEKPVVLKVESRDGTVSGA

CYP2C19 = target: T5, CYP2C19 (Homo sapiens, UniProt P33261); assay: Cocktail assay for CYPs, mephenytoin 4′-hydroxylation (CYP2C19), human liver microsomes; settings: 30 μM mephenytoin, 0.1 mg/mL human liver microsomes, 10 min at 37° C.; read-out: CYP IC50 (nM) 2C19
T5 construct: 0.1 mg/mL protein human liver microsomes (BD Gentest); tissue BD Gentest; host or cells: human liver microsomes
Summary of the method: as §2

CYP3A4 [2] = target: T4, CYP3A4; assay: Cocktail assay for CYPs, midazolam 1′-hydroxylation (CYP3A4), human liver microsomes; parameters: 0.1 mg/mL protein human liver microsomes (BD Gentest); tissue BD Gentest; host or cells: human liver microsomes; settings: 2 μM midazolam, 0.1 mg/mL human liver microsomes, 10 min at 37° C.; read-out: CYP IC50 (nM) 3A4 (MDZ)
Summary of the method: as §1
Target sequence in this assay (P08684 whole entry): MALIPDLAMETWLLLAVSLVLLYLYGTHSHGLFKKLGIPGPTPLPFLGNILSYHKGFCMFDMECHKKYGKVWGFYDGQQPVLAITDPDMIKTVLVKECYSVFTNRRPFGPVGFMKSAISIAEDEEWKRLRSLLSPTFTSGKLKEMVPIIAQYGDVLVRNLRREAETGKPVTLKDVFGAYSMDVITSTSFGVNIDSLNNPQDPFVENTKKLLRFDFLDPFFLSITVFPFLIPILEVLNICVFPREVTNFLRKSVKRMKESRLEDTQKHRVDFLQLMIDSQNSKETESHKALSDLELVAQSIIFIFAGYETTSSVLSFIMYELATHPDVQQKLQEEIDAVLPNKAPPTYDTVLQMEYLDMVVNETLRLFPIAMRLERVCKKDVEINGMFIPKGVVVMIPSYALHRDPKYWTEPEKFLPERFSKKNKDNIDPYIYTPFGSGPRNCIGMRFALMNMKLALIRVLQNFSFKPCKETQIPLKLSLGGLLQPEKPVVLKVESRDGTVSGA

T2 sequence (P10635 whole entry): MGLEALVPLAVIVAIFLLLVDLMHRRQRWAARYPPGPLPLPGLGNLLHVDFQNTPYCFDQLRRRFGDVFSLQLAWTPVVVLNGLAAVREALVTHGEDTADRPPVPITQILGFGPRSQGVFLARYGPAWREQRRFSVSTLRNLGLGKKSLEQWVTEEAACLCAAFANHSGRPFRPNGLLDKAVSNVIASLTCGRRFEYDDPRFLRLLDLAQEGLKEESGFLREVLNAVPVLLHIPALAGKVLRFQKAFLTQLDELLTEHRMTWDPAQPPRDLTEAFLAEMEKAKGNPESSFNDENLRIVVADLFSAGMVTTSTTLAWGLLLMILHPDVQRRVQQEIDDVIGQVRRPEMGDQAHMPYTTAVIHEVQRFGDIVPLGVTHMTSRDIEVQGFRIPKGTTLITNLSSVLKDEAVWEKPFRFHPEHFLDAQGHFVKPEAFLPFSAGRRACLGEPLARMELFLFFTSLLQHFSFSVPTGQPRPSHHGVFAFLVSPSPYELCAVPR
T5 sequence (P33261 whole entry): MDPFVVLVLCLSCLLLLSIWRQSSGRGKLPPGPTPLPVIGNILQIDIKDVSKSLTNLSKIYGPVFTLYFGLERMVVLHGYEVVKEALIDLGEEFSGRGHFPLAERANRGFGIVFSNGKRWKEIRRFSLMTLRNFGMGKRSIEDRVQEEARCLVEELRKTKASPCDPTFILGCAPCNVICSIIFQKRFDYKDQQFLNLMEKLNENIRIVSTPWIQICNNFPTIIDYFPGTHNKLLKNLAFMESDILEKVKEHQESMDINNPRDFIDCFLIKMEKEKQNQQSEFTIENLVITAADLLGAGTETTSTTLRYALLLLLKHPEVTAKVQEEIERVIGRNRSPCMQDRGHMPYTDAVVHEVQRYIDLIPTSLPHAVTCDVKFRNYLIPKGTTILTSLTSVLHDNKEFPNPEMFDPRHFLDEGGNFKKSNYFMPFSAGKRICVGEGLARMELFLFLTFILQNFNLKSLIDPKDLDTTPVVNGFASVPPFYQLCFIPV
T3 sequence (P11712 whole entry): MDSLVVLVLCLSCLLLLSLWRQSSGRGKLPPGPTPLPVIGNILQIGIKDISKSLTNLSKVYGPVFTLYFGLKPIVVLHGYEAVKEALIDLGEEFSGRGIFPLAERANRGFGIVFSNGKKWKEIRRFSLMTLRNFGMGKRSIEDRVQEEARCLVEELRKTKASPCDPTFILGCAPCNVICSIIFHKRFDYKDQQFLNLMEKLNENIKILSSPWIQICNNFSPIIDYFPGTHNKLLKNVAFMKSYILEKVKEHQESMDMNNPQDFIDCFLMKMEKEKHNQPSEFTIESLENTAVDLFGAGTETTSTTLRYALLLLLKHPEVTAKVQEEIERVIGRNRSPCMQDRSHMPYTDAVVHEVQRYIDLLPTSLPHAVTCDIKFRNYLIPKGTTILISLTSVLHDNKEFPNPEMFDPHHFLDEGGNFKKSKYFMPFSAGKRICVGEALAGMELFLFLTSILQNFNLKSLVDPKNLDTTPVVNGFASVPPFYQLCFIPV

SMILES	IC50 (CYP1A2)	IC50 (CYP2D6)	IC50 (CYP2C9)	IC50 (CYP3A4 [1])	IC50 (CYP2C19)	IC50 (CYP3A4 [2])
CC(=O)Nc1ncc(S(=O)(=O)N2Cc3cccc(-c4cncn4CCc4ccc(F)cc4)c3C2)s1 [Compound 15, N-(5-((4-(1-(4-fluorophenethyl)-1H-imidazol-5-yl)isoindolin-2-yl)sulfonyl)thiazol-2-yl)acetamide]	> 10000 nM	1400 nM	1230 nM	8 nM	155 nM	6.4 nM
O=S(=O)(NCc1ccccc1-c1cncn1CCc1ccc(F)cc1)c1cccnc1 [Compound 17, N-(2-(1-(4-fluorophenethyl)-1H-imidazol-5-yl)benzyl)pyridine-3-sulfonamide]	> 10000 nM	5200 nM	> 10000 nM	35.9 nM	> 10000 nM	10.5 nM
CC(=O)Nc1ncc(S(=O)(=O)NCc2ccccc2-c2cncn2CCc2ccc(F)cc2)s1 [Compound 18, N-(5-(N-(2-(1-(4-fluorophenethyl)-1H-imidazol-5-yl)benzyl)sulfamoyl)thiazol-2-yl) acetamide]	> 10000 nM	7180 nM	> 10000 nM	18.6 nM	2930 nM	15.8 nM
O=S(=O)(NCc1ccccc1-c1cncn1CCc1ccc(F)cc1)c1cnc(N2CCN3C[C@H](O)C[C@H]3C2)s1 [Compound 19, N-(2-(1-(4-fluorophenethyl)-1H-imidazol-5-yl)benzyl)-2-((7R,8aS)-7-hydroxyhexahydropyrrolo[1,2-a]pyrazin-2 (1H)-yl)thiazole-5-sulfonamide]	> 10000 nM	3200 nM	6270 nM	16.4 nM	> 10000 nM	9.5 nM
COCCn1cncc1-c1ccccc1C1CCCN1S(=O)(=O)c1cnc(NC(C)=O)s1 (stereo not drawn) [Compound 20, N-(5-((2-(2-(1-(2-methoxyethyl)-1H-imidazol-5-yl)phenyl)pyrrolidin-1-yl)sulfonyl)thiazol-2-yl)acetamide]	> 10000 nM	> 10000 nM	> 10000 nM	≥ 100 nM	> 10000 nM	38.5 nM
Cn1cncc1-c1ccccc1C1CCCN1S(=O)(=O)c1cnc(N2CCN3C[C@H](O)C[C@H]3C2)s1 (stereo partly drawn) [Compound 24, (7R,8aS)-2-(5-((2-(2-(1-methyl-1H-imidazol-5-yl)phenyl)pyrrolidin-1-yl)sulfonyl)thiazol-2-yl)octahydro-pyrrolo[1,2-a] pyrazin-7-ol]	> 10000 nM	> 10000 nM	> 10000 nM	29.5 nM	> 10000 nM	32.5 nM
CC(=O)Nc1ncc(S(=O)(=O)N2CCCC2c2ccccc2-c2cncn2C)s1 (stereo not drawn) [Compound 30, N-(5-((2-(2-(1-methyl-1H-imidazol-5-yl)phenyl)pyrrolidin-1-yl)sulfonyl)thiazol-2-yl) acetamide]	> 10000 nM	> 10000 nM	> 10000 nM	37.7 nM	> 10000 nM	18.8 nM

More lines, now with the values ahead:

IC50 (CYP1A2)	IC50 (CYP2D6)	IC50 (CYP2C9)	IC50 (CYP3A4 [1])	IC50 (CYP2C19)	IC50 (CYP3A4 [2])	SMILES
> 10000 nM	8390 nM	7470 nM	> 100 nM	912 nM	197 nM	CC(=O)Nc1ncc(S(=O)(=O)NCc2ccc(-c3cncn3CCc3ccc(F)cc3)cn2)s1 [Compound 11, N-(5-(N-((5-(1-(4-fluorophenethyl)-1H-imidazol-5-yl)pyridin-2-yl)methyl)sulfamoyl)thiazol-2-yl)acetamide]
2400 nM	675 nM	49 nM	5 nM	300 nM	8.7 nM	CC(=O)Nc1ncc(S(=O)(=O)NCc2ccc(-c3cncn3CCc3ccc(F)cc3)cc2)s1 [Compound 12, N-(5-(N-(4-(1-(4-fluorophenethyl)-1H-imidazol-5-yl)benzyl)sulfamoyl)thiazol-2-yl)acetamide]
99 nM	348 nM	65 nM	5.3 nM	357 nM	5.9 nM	CC(=O)Nc1ncc(S(=O)(=O)NCc2cccc(-c3cncn3CCc3ccc(F)cc3)c2)s1 [Compound 13, N-(5-(N-(3-(1-(4-fluorophenethyl)-1H-imidazol-5-yl)benzyl)sulfamoyl)thiazol-2-yl)acetamide]
> 10000 nM	1100 nM	7410 nM	54 nM	> 10000 nM	137 nM	O=S(=O)(NCCc1ccccc1-c1cncn1CCc1ccc(F)cc1)c1cccnc1 [Compound 14, N-(2-(1-(4-fluorophenethyl)-1H-imidazol-5-yl)phenethyl)pyridine-3-sulfonamide]
3100 nM	360 nM	486 nM	9.5 nM	1260 nM	13.2 nM	CN1CCN(c2ncc(S(=O)(=O)N3Cc4cccc(-c5cncn5CCc5ccc(F)cc5)c4C3)s2)CC1 [Compound 16, 5-((4-(1-(4-fluorophenethyl)-1H-imidazol-5-yl)isoindolin-2-yl)sulfonyl)-2-(4-methylpiperazin-1-yl)thiazole]
5890 nM	4050 nM	4410 nM	5.6 nM	4190 nM	13.7 nM	CC(=O)Nc1ncc(S(=O)(=O)N2CCCC2c2ccccc2-c2cncn2CCc2ccc(F)cc2)s1 (stereo not drawn) [Compound 21, N-(5-((2-(2-(1-(4-fluorophenethyl)-1H-imidazol-5-yl)phenyl)pyrrolidin-1-yl)sulfonyl)thiazol-2-yl) acetamide]
9490 nM	2140 nM	2220 nM	23 nM	1890 nM	50.3 nM	O=S(=O)(c1cnc(Cl)c(Br)c1)N1CCCC1c1ccccc1-c1cncn1CCc1ccc(F)cc1 (stereo not drawn) [Compound 25, 3-bromo-2-chloro-5-((2-(2-(1-(4-fluoro-phenethyl)-1H-imidazol-5-yl)phenyl)pyrrolidin-1-yl)sulfonyl) pyridine]
5020 nM	1650 nM	1160 nM	1 nM	1360 nM	3.8 nM	O=S(=O)(c1ccc2c(c1)OCO2)N1CCCC1c1ccccc1-c1cncn1CCc1ccc(F)cc1 (stereo not drawn) [Compound 26, 5-(2-(1-(benzo[d][1,3]dioxol-5-ylsulfonyl)pyrrolidin-2-yl)phenyl)-1-(4-fluorophenethyl)-1H-imidazole]
2650 nM	3480 nM	1910 nM	41 nM	3800 nM	36.1 nM	COc1ccc(OC)c(S(=O)(=O)N2CCCC2c2ccccc2-c2cncn2CCc2ccc(F)cc2)c1 (stereo not drawn) [Compound 27, 5-(2-(1-((2,5-dimethoxyphenyl)sulfonyl)pyrrolidin-2-yl)phenyl)-1-(4-fluorophenethyl)-1H-imidazole]
3820 nM	2930 nM	1860 nM	7.6 nM	3260 nM	8.3 nM	O=S(=O)(c1ccc(N2CCOCC2)nc1)N1CCCC1c1ccccc1-c1cncn1CCc1ccc(F)cc1 (stereo not drawn) [Compound 29, 4-(5-((2-(2-(1-(4-fluorophenethyl)-1H-imidazol-5-yl)phenyl)pyrrolidin-1-yl)sulfonyl)pyridin-2-yl)morpholine]
